Where two headings read alike, the source gives them in different places.

The target of one assay is T1, RET (G810S/M918T) (Homo sapiens, UniProt P07949, G810S/M918T).
T1 construct: purchased Reaction Biology Corp
As to the kind of experiment: Kinase panel inhibition, radiolabeled [γ-33P] ATP (Reaction Biology Corp). The class given is biochemical. The conditions noted are these: ATP 1 µM; for remaining activity at 30 µM: compound at 30uM; for remaining activity at 10 µM: compound at 10 uM.

The next assay addresses T2, RET(G810R) (Homo sapiens, UniProt P07949, G810R).
T2 construct: purchased Reaction Biology Corp
The assay is described as above. The class given is biochemical. As to conditions: ATP 10 µM, read-out: % Enzyme Activity (relative to DMSO controls) G810R; for remaining activity at 1 µM: compound at 1 uM.

A further assay addresses T3, RET(V804M) (Homo sapiens, UniProt P07949, V804M).
T3 construct: purchased Reaction Biology Corp
The assay is described as above. The class given is biochemical. The conditions noted are these: compound at 1 uM; ATP 10 µM; read-out: % Enzyme Activity (relative to DMSO controls) V804M.

In the next assay the test system is BaF3 KIF5B-RET (G810R). As to the kind of experiment: Cell proliferation inhibition, Cell Counting Kit-8, Ba/F3 cell line. The class given is cell-based, rodent. As to conditions: Mus musculus, 72 hours incubation, read-out: Cell Viability of BaF3 Cell lines (IC50 in uM) KIF5B-RET (G810R).
A further assay concerns the target T4, RET (Homo sapiens, UniProt P07949).
T4 construct: purchased Reaction Biology Corp
As to the kind of experiment: Kinase panel inhibition, radiolabeled [γ-33P] ATP (Reaction Biology Corp). It counts as biochemical. As to conditions: compound at 1 uM; ATP 10 µM; read-out: % Enzyme Activity (relative to DMSO controls) RET.

The subject of a further assay is A-549. As to the kind of experiment: Cell proliferation inhibition, Cell Counting Kit-8, non-small cell lung cancer cell line. It counts as cell-based. The conditions noted are these: A-549 cell line; 72 hours incubation; test concentration not given.
In the next assay the target is T5, RET-CCDC6 (PTC1) (Homo sapiens, UniProt P07949).
T5 construct: purchased Reaction Biology Corp
T5 sequence (P07949 whole entry, looked up): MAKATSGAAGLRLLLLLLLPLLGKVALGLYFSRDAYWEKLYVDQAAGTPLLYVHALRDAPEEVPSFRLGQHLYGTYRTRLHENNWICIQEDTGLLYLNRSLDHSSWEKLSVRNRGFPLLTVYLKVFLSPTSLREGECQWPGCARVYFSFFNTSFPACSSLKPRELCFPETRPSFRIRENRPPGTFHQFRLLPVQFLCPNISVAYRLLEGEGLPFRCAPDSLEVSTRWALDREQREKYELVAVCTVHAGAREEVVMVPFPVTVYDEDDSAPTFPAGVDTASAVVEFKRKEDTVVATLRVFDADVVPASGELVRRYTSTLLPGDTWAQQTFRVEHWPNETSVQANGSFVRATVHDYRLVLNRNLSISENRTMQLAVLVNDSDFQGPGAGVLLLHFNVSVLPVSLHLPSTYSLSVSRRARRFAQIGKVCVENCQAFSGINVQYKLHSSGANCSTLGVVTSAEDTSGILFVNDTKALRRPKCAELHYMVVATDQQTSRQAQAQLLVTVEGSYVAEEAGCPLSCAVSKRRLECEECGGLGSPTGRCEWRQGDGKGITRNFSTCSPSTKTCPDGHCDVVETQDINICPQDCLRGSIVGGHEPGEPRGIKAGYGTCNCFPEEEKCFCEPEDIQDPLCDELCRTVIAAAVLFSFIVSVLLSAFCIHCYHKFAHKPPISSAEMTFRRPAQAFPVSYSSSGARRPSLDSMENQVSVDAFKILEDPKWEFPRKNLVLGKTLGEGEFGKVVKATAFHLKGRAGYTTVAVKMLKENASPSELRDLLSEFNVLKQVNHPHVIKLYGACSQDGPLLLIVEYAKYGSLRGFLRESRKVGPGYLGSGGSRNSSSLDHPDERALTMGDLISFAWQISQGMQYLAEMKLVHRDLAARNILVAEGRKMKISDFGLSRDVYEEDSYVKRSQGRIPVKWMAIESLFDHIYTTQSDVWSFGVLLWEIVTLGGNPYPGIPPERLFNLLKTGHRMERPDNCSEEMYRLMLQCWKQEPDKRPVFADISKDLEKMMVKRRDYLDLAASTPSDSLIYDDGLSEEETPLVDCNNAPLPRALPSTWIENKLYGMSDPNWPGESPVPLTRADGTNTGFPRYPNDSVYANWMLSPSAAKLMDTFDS
Put plainly: Kinase panel inhibition, radiolabeled [γ-33P] ATP (Reaction Biology Corp). The class given is biochemical. The conditions noted are these: compound at 10 uM, ATP 1 µM.

The mark [1] stands for this setting: Data 1, read-out: % Enzyme Activity (relative to DMSO controls) RET (G810S/M918T) Data 1.
Setting [2] is: Data 2, read-out: % Enzyme Activity (relative to DMSO controls) RET (G810S/M918T) Data 2.
[3] abbreviates: Data 1, read-out: % Enzyme Activity (relative to DMSO controls) RET-CCDC6 (PTC1) Data 1.
The mark [4] stands for this setting: Data 2, read-out: % Enzyme Activity (relative to DMSO controls) RET-CCDC6 (PTC1) Data 2.

T1 sequence (P07949 29-1114 G810S/M918T): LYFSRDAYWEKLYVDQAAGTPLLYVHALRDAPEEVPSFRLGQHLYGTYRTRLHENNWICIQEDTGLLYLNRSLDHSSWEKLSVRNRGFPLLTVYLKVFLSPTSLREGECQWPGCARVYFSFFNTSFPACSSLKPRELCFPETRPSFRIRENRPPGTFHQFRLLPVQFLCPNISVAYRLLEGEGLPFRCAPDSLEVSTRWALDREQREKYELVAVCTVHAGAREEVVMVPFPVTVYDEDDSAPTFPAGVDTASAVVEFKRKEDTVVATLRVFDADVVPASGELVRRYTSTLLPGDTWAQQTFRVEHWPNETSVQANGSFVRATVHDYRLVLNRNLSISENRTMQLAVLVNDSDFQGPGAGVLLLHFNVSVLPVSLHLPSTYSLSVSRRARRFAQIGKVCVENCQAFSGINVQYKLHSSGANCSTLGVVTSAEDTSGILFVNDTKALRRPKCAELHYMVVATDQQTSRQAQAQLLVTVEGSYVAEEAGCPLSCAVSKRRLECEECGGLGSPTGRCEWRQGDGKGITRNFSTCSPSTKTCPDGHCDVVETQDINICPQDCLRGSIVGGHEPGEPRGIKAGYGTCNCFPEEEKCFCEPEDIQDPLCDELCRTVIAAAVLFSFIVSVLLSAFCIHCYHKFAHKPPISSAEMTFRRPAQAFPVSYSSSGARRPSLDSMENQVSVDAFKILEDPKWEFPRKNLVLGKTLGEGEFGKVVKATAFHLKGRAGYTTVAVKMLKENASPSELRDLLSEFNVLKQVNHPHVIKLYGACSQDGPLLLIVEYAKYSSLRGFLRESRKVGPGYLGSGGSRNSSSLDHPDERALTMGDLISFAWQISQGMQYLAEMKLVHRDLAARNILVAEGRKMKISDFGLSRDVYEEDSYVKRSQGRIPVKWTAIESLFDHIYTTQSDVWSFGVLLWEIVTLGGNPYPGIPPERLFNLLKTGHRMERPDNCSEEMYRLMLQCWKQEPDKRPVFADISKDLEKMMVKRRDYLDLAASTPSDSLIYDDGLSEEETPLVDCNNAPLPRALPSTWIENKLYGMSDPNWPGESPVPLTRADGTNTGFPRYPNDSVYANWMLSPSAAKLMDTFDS
T3 sequence (P07949 29-1114 V804M): as the sequence (P07949 29-1114 G810S/M918T) above, with V776M, S782G, T890M counted along it
T2 sequence (P07949 29-1114 G810R): as the sequence (P07949 29-1114 G810S/M918T) above, with S782R, T890M counted along it
T4 sequence (P07949 29-1114): as the sequence (P07949 29-1114 G810S/M918T) above, with S782G, T890M counted along it

Turning to `O=C(Nc1cc(-c2ccc(F)nc2)c2nccnc2c1)c1ccco1` [Intermediate Compound 13, N-(8-(6-fluoropyridin-3-yl)quinoxalin-6-yl)furan-2-carboxamide], the results for the remaining activity at 30 µM on RET (G810S/M918T) (setting [1]) and at RET (G810S/M918T) (setting [2]) were 92.6% and 89.7%, respectively. The remaining activity at 1 µM at RET(G810R) was 102%; at RET(V804M) it was 104%; on RET, 95.7%. Further, in the assay on BaF3 KIF5B-RET (G810R), the IC50 is > 10 µM.
For the compound `CCNc1cc(-c2ccc(F)nc2)c2nccnc2c1` [Intermediate Compound 6, N-ethyl-8-(6-fluoropyridin-3-yl)quinoxalin-6-amine], the remaining activity at 30 µM came out at 18.2% at RET (G810S/M918T) (setting [1]) and 17.2% on RET (G810S/M918T) (setting [2]). Also, the remaining activity at 1 µM on RET(G810R) is 97.9%; at RET(V804M), 59.3%; on RET it was 57%. Moreover, the IC50 in the assay with BaF3 KIF5B-RET (G810R) amounted to 4.44 µM.
With `CCN(CC)c1cc(-c2ccc(N3CC(Oc4cccc(F)c4)C3)nc2)c2nccnc2c1` [Example 28, N,N-diethyl-8-(6-(3-(3-fluorophenoxy)azetidin-1-yl)pyridin-3-yl)quinoxalin-6-amine], the remaining activity at 30 µM on RET (G810S/M918T) (setting [1]) was determined as 4.19%; at RET (G810S/M918T) (setting [2]), 4.35%. Besides, the remaining activity at 1 µM on RET(G810R) came to 105%; at RET(V804M), 16.5%; at RET, 28.3%. For the same compound, the IC50 in the assay on BaF3 KIF5B-RET (G810R) is > 10 µM. Besides, in the assay with A-549, the “Cell Proliferation (% of control)” value worked out at 94.81%.
Regarding `O=[N+]([O-])c1cc(-c2ccc(N3CC(Oc4cccc(F)c4)C3)nc2)c2nccnc2c1` [Example 27, 5-(6-(3-(3-fluorophenoxy)azetidin-1-yl)pyridin-3-yl)-7-nitroquinoxaline], the results for the remaining activity at 30 µM on RET (G810S/M918T) (setting [1]) and on RET (G810S/M918T) (setting [2]) were 59.9% and 58.1%, respectively. The remaining activity at 1 µM turned out to be 101% on RET(G810R), 62.8% on RET(V804M) and 67.2% at RET. For the same compound, the IC50 in the assay on BaF3 KIF5B-RET (G810R) is > 10 µM. Further, the “Cell Proliferation (% of control)” value in the assay on A-549 came to 94.57%.
With `Nc1cc(-c2cnc(N3CC(Oc4cccc(F)c4)C3)nc2)c2nccnc2c1` [Example 29, 8-(2-(3-(3-fluorophenoxy)azetidin-1-yl)pyrimidin-5-yl)quinoxalin-6-amine], the remaining activity at 10 µM at RET (G810S/M918T) (setting [1]) worked out at 0.28%; at RET (G810S/M918T) (setting [2]), 0.11%; at RET-CCDC6 (PTC1) (setting [3]), 1.22%; on RET-CCDC6 (PTC1) (setting [4]), 1.07%. For the same compound, at RET(G810R) (compound at 0.1 uM), the remaining activity at 0.1 µM is 76.3%. Further, in the assay on A-549, the “Cell Proliferation (% of control)” value came out at 12.87%.
Regarding `COc1ccc(CN2C3CC2CN(c2ccc(-c4cc(OCC(C)(C)O)cn5ncc(C#N)c45)cn2)C3)cn1` [Selpercatinib, selpercatinib, reference compound], in the assay with BaF3 KIF5B-RET (G810R), the IC50 came out at 1.41 µM.
As to `CCNc1cc(Br)c2nccnc2c1` [Intermediate Compound 18, 8-Bromo-N-ethylquinoxalin-6-amine], the figures for the remaining activity at 30 µM on RET (G810S/M918T) (setting [1]) and on RET (G810S/M918T) (setting [2]) were 10.3% and 9.57%, respectively. Moreover, the remaining activity at 1 µM at RET(G810R) is 104%; on RET(V804M), 68.3%; at RET, 71.1%. For the same compound, in the assay on BaF3 KIF5B-RET (G810R), the IC50 is 0.73 µM.
Take `O=[N+]([O-])c1cc(-c2ccc(F)nc2)c2nccnc2c1` [Intermediate Compound 15, 5-(6-fluoropyridin-3-yl)-7-nitroquinoxaline]: the remaining activity at 30 µM on RET (G810S/M918T) (setting [1]) amounted to 97.4%; on RET (G810S/M918T) (setting [2]) it was 99.4%. Also, the remaining activity at 1 µM was 99.5% at RET(G810R), 94.9% on RET(V804M) and 93.5% at RET.
As for `Nc1cc(-c2ccc(N3CCC(N4CCOCC4)CC3)nc2)c2nccnc2c1` [Example 25, 8-(6-(4-morpholinopiperidin-1-yl)pyridin-3-yl)quinoxalin-6-amine], the remaining activity at 10 µM on RET (G810S/M918T) (setting [1]) worked out at 46.8%; on RET (G810S/M918T) (setting [2]) it was 45.2%; on RET-CCDC6 (PTC1) (setting [3]) it was 18.3%; on RET-CCDC6 (PTC1) (setting [4]), 20.4%. The “Cell Proliferation (% of control)” value in the assay on A-549 is listed as 75.52%.
For the compound `CCNc1cc(-c2ccc(N3CCN(Cc4ccc(Br)cc4)CC3)nc2)c2nccnc2c1` [Example 26, 8-(6-(4-(4-bromobenzyl)piperazin-1-yl)pyridin-3-yl)-N-ethylquinoxalin-6-amine], the remaining activity at 10 µM at RET (G810S/M918T) (setting [1]) was 1.23%; on RET (G810S/M918T) (setting [2]), 1.3%; at RET-CCDC6 (PTC1) (setting [3]), 0.94%; at RET-CCDC6 (PTC1) (setting [4]), 1.32%. The “Cell Proliferation (% of control)” value with A-549 is on record as 79.51%.
On to `Nc1cc(-c2ccc(N3CCN(Cc4ccc(Br)cc4)CC3)nc2)c2nccnc2c1` [Example 24, 8-(6-(4-(4-bromobenzyl)piperazin-1-yl)pyridin-3-yl)quinoxalin-6-amine], for which the remaining activity at 10 µM at RET (G810S/M918T) (setting [1]) was found to be 2.24%; on RET (G810S/M918T) (setting [2]), 2.38%; at RET-CCDC6 (PTC1) (setting [3]) it was 1.51%; on RET-CCDC6 (PTC1) (setting [4]), 1.27%. The “Cell Proliferation (% of control)” value in the assay with A-549 worked out at 15.35%.
For `CC(C)CNc1cc(-c2ccc(N3CC(Oc4cccc(F)c4)C3)nc2)c2nccnc2c1` [Example 7, 8-(6-(3-(3-fluorophenoxy)azetidin-1-yl)pyridin-3-yl)-N-isobutylquinoxalin-6-amine], the remaining activity at 10 µM came to 4.28% at RET (G810S/M918T) (setting [1]), 4.26% on RET (G810S/M918T) (setting [2]), 0.85% at RET-CCDC6 (PTC1) (setting [3]) and 1.07% on RET-CCDC6 (PTC1) (setting [4]). The “Cell Proliferation (% of control)” value with A-549 was 53.57%.
Take `CCCNc1cc(-c2ccc(N3CC(Oc4cccc(F)c4)C3)nc2)c2nccnc2c1` [Example 4, 8-(6-(3-(3-fluorophenoxy)azetidin-1-yl)pyridin-3-yl)-N-propylquinoxalin-6-amine]: the remaining activity at 10 µM at RET (G810S/M918T) (setting [1]) was -0.23%; at RET (G810S/M918T) (setting [2]), 0.04%; at RET-CCDC6 (PTC1) (setting [3]) it was 1.11%; at RET-CCDC6 (PTC1) (setting [4]), 1.31%. In addition, in the assay on A-549, the “Cell Proliferation (% of control)” value came out at 43.59%.
Turning to `CN1CCN(c2ccc(-c3cc(N)cc4nccnc34)cn2)CC1` [Example 20, 8-(6-(4-methylpiperazin-1-yl)pyridin-3-yl)quinoxalin-6-amine], the remaining activity at 10 µM at RET (G810S/M918T) (setting [1]) was found to be 48.1%; at RET (G810S/M918T) (setting [2]), 45%; at RET-CCDC6 (PTC1) (setting [3]), 12.9%; on RET-CCDC6 (PTC1) (setting [4]), 15.3%. For the same compound, the “Cell Proliferation (% of control)” value in the assay with A-549 was determined as 81.61%.
For `Nc1cc(-c2ccc(N3CCOCC3)nc2)c2nccnc2c1` [Example 19, 8-(6-morpholinopyridin-3-yl)quinoxalin-6-amine], the remaining activity at 10 µM on RET (G810S/M918T) (setting [1]) was determined as 27.3%; on RET (G810S/M918T) (setting [2]), 26.3%; at RET-CCDC6 (PTC1) (setting [3]), 5.69%; on RET-CCDC6 (PTC1) (setting [4]), 6.45%. Besides, the “Cell Proliferation (% of control)” value with A-549 was 71.46%.
`CCN1CCN(c2ccc(-c3cc(N)cc4nccnc34)cn2)CC1` [Example 21, 8-(6-(4-ethylpiperazin-1-yl)pyridin-3-yl)quinoxalin-6-amine]: the remaining activity at 10 µM at RET (G810S/M918T) (setting [1]) turned out to be 66.7%; on RET (G810S/M918T) (setting [2]), 63.3%; at RET-CCDC6 (PTC1) (setting [3]), 26%; on RET-CCDC6 (PTC1) (setting [4]), 28%. In the assay on A-549, the “Cell Proliferation (% of control)” value is given as 64.90%.
`CC(C)CNc1cc(-c2ccc(N3CC[C@H](NC(=O)c4ccccc4F)C3)nc2)c2nccnc2c1` [Example 16, (S)-2-fluoro-N-(1-(5-(7-(isobutylamino)quinoxalin-5-yl)pyridin-2-yl)pyrrolidin-3-yl)benzamide]: the remaining activity at 10 µM at RET (G810S/M918T) (setting [1]) turned out to be 3.39%; at RET (G810S/M918T) (setting [2]) it was 3.22%; on RET-CCDC6 (PTC1) (setting [3]), 1.21%; on RET-CCDC6 (PTC1) (setting [4]), 1.51%. Moreover, the “Cell Proliferation (% of control)” value with A-549 is listed as 65.29%.
Take `O=C(Nc1cc(Br)c2nccnc2c1)c1ccco1` [Intermediate Compound 11, N-(8-bromoquinoxalin-6-yl)furan-2-carboxamide]: the remaining activity at 30 µM at RET (G810S/M918T) (setting [1]) worked out at 74.7%; on RET (G810S/M918T) (setting [2]) it was 73%. Moreover, the remaining activity at 1 µM on RET(G810R) was determined as 97.6%; at RET(V804M), 87.1%; at RET, 93.7%. For the same compound, in the assay on BaF3 KIF5B-RET (G810R), the IC50 was > 10 µM.

The values above are taken from patent publication EP4796538A1, “NOVEL QUINOXALINE COMPOUNDS, MANUFACTURING METHOD THEREOF, AND USES THEREOF” (Gachon University of Industry-Academic Cooperation …, priority 2023, dated 2025).
